# Experimental data published in ChEMBL document CHEMBL5252509, “In depth analysis of kinase cross screening data to identify chemical starting points for inhibition of the Nek family of kinases” (Medchemcomm, 2018).
# Values joined by “and” are separate entries in the source; they are usually repeats but may differ in a detail not shown here. Identical values can stand only once.
# Tests used:
# [1] = target: T1, Serine/threonine-protein kinase Nek11 (Homo sapiens) (UniProt Q8NG66); test: Inhibition of NEK11 (unknown origin) at 1 uM relative to control
# T1 sequence (whole entry): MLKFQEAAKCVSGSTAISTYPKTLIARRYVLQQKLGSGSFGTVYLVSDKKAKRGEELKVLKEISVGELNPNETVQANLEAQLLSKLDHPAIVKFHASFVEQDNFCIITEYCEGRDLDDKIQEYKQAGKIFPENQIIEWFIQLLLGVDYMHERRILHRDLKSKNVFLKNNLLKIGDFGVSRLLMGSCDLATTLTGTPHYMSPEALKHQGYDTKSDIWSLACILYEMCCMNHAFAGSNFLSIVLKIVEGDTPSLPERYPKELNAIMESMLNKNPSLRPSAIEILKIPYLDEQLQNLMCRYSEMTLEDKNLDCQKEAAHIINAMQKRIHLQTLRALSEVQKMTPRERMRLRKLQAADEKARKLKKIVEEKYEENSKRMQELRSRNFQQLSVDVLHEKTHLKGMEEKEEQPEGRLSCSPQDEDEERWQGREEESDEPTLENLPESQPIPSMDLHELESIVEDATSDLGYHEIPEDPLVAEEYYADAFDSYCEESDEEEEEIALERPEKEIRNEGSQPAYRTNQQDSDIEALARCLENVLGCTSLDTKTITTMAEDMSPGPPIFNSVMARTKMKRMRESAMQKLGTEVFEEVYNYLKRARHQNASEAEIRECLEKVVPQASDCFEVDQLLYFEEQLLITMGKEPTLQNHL
# [2] = target: T2, Serine/threonine-protein kinase Nek9 (Homo sapiens) (UniProt Q8TD19); test: Inhibition of NEK9 (unknown origin) at 1 uM relative to control
# T2 sequence (whole entry): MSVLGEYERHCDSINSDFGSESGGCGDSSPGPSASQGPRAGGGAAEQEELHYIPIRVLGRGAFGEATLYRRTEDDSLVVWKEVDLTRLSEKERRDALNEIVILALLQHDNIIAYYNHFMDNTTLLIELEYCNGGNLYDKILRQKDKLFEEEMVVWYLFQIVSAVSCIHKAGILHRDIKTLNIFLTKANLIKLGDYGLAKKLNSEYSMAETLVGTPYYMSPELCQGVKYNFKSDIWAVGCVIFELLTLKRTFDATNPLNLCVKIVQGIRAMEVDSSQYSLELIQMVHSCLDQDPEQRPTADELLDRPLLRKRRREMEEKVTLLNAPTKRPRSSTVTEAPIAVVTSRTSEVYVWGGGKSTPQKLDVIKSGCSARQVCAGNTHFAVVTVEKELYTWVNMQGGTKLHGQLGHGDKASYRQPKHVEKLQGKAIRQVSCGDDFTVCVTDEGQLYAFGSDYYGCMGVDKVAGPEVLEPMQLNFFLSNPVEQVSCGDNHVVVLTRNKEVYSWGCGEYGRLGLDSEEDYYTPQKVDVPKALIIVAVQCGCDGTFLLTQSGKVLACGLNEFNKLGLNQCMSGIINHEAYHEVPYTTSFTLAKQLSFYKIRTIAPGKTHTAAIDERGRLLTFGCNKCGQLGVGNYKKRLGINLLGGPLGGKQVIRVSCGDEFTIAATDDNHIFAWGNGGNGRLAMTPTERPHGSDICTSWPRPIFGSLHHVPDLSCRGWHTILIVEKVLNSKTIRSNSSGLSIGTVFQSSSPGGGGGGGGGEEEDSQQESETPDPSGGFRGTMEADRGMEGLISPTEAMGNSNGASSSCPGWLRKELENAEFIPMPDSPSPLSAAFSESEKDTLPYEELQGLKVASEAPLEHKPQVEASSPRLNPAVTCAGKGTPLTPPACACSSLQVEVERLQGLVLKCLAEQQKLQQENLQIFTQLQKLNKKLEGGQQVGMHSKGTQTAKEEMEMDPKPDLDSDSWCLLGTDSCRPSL
# [3] = target: T3, Serine/threonine-protein kinase Nek5 (Homo sapiens) (UniProt Q6P3R8); test: Inhibition of NEK5 (unknown origin) at 1 uM relative to control
# T3 sequence (whole entry): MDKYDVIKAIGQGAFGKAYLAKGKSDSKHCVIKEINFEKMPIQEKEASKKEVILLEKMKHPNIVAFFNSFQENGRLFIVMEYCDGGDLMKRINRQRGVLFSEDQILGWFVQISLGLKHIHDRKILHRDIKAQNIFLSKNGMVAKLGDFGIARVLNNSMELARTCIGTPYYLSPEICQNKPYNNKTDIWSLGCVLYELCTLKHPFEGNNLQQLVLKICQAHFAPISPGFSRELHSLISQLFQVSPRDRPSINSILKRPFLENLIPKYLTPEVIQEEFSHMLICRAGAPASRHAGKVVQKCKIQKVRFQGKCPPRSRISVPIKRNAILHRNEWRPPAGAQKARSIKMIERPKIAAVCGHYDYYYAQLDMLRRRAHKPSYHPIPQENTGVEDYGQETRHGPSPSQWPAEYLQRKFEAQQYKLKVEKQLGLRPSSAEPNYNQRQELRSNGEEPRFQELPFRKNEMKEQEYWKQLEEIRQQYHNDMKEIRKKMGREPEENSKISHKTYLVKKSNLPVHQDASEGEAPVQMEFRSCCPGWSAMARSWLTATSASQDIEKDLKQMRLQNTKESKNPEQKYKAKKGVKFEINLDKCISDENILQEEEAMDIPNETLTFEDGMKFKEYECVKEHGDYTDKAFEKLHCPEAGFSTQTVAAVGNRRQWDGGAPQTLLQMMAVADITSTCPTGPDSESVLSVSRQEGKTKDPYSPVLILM
# [4] = target: T4, Serine/threonine-protein kinase Nek3 (Homo sapiens) (UniProt P51956); test: Inhibition of NEK3 (unknown origin) at 1 uM relative to control
# T4 sequence (whole entry): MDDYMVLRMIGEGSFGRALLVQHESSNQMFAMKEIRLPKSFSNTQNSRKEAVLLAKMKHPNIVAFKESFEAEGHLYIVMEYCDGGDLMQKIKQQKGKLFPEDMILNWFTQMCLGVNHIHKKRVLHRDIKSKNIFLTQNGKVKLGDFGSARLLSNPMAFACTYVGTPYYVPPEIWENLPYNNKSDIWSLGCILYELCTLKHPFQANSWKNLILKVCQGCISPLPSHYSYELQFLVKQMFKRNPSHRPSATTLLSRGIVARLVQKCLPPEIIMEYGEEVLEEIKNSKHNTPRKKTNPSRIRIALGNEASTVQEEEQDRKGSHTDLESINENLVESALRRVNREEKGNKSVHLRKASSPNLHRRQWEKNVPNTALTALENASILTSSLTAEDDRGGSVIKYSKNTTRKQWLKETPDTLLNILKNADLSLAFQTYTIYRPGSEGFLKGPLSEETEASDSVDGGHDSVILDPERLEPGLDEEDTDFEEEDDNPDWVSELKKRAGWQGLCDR
Compound,inhibition [1] [%],inhibition [2] [%],inhibition [3],inhibition [4] [%]
COc1cccc(C2=C(Nc3cccc(Cl)c3)C(=O)NC2=O)c1,0,1,0%,5
Cn1cc(-c2ccc3c(c2)CCN3C(=O)Cc2cc(F)cc(C(F)(F)F)c2)c2c(N)ncnc21,8,25,0%,0
Cn1cc(-c2ccc3c(c2)CCN3C(=O)Cc2cccc(C(F)(F)F)c2)c2c(N)ncnc21,14,8,0%,0
COc1ccc(Nc2ncc(C#N)c(Nc3ccccc3C(N)=O)n2)cc1N1CCN(C)CC1,2.5,1.8,0%,6.5
Nc1nccc2scc(-c3ccc4c(c3)CCN4C(=O)Cc3cc(F)ccc3F)c12,9,4,6%,0
Nc1ncc(-c2cn[nH]c2)c2scc(-c3ccc4c(c3)CCN4C(=O)Cc3ccccc3)c12,87,0,21%,0
COc1cccc(C2=C(Nc3ccc(Cl)c(C(=O)O)c3)C(=O)NC2=O)c1,27,0,3%,7
c1ccc(-c2ccnc3[nH]ccc23)cc1,0,0,8%,19
Cn1cc(-c2ccc3c(c2)CCN3C(=O)Cc2ccccc2Cl)c2c(N)ncnc21,0,33,7%,0
Nc1nccc2scc(-c3ccc4c(c3)CCN4C(=O)Cc3ccccc3)c12,0,18,14%,10
O=c1[nH]ccc2nc(N[C@@H]3CCCNC3)nc(Nc3ccc(S(=O)(=O)N4CCOCC4)cc3)c12,100,86,49%,11
COc1cc(Nc2ncc3c(C)nc(-c4cc5ccccc5[nH]4)n3n2)cc(OC)c1OC,86,70,93.1% and 99%,89
CC(C)c1nc(-c2cccc(NS(=O)(=O)c3c(F)cccc3F)c2F)c(-c2ccnc(Nc3ccc(N4CCOCC4)nc3)n2)s1,1.4,6.4,24%,99
COc1cccc(CC(=O)N2CCc3cc(-c4cn(C)c5ncnc(N)c45)ccc32)c1,49,25,24%,4
COc1ccc(C2=C(Nc3cccc(C(=O)O)c3)C(=O)NC2=O)cc1,30,2,0%,31
Cc1ccc(CC(=O)N2CCc3cc(-c4cn(C)c5ncnc(N)c45)ccc32)cc1,59,20,45%,7
Nc1ncc(-c2cccnc2)c2scc(-c3ccc4c(c3)CCN4C(=O)Cc3ccccc3)c12,44,28,22%,1
CC(C)Oc1ccc2c(-c3ccnc(Nc4ccc(N5CCN(C)CC5)cc4)n3)cnn2n1,14,7.1,0%,1.5
O=C1NC(=O)C(c2ccccc2Cl)=C1Nc1cccc(Cl)c1,0,20,7%,56
Cn1cc(-c2ccc3c(c2)CCN3C(=O)Cc2cccc(Cl)c2)c2c(N)ncnc21,0,18,32%,1
NCCNS(=O)(=O)c1ccc(-c2ccnc3[nH]ccc23)cc1,24,22,44%,14
O=S(=O)(c1ccc(-c2ccnc3[nH]ccc23)cc1)N1CCCC1,0,28,31%,16
COc1cccc(C2=C(Nc3cccc(O)c3)C(=O)NC2=O)c1,0,15,2%,19
CS(=O)(=O)Nc1ccc(-c2ccnc3[nH]ccc23)cc1,17,14,2%,4
CC(C)c1nc(-c2cccc(NS(=O)(=O)c3ccccc3)c2)c(-c2ccnc(Nc3ccc4c(c3)CN(C)CC4)n2)s1,2.3,49,100%,73
Cc1ccccc1CC(=O)N1CCc2cc(-c3cn(C)c4ncnc(N)c34)ccc21,58,0,34%,0
Cn1cc(-c2ccc3c(c2)CCN3C(=O)Cc2cccc(F)c2)c2c(N)ncnc21,8,0,28%,11
Cn1cc(-c2ccc3c(c2)CCN3C(=O)Cc2cc(F)cc(F)c2F)c2c(N)ncnc21,38,8,8%,0
Cn1cc(-c2cnc(N)c3c(-c4ccc5c(c4)CCN5C(=O)Cc4ccccc4)csc23)cn1,47,0,5%,1
CN(C)CCNS(=O)(=O)c1ccc(-c2ccnc3[nH]ccc23)cc1,0,0,1%,0
